Consider six molecules from ChEMBL document CHEMBL4020811, “JAK2 JH2 Fluorescence Polarization Assay and Crystal Structures for Complexes with Three Small Molecules” (ACS Med Chem Lett, 2017).

Sequence of Tyrosine-protein kinase JAK2 (O60674 whole entry, the tested form may be a part): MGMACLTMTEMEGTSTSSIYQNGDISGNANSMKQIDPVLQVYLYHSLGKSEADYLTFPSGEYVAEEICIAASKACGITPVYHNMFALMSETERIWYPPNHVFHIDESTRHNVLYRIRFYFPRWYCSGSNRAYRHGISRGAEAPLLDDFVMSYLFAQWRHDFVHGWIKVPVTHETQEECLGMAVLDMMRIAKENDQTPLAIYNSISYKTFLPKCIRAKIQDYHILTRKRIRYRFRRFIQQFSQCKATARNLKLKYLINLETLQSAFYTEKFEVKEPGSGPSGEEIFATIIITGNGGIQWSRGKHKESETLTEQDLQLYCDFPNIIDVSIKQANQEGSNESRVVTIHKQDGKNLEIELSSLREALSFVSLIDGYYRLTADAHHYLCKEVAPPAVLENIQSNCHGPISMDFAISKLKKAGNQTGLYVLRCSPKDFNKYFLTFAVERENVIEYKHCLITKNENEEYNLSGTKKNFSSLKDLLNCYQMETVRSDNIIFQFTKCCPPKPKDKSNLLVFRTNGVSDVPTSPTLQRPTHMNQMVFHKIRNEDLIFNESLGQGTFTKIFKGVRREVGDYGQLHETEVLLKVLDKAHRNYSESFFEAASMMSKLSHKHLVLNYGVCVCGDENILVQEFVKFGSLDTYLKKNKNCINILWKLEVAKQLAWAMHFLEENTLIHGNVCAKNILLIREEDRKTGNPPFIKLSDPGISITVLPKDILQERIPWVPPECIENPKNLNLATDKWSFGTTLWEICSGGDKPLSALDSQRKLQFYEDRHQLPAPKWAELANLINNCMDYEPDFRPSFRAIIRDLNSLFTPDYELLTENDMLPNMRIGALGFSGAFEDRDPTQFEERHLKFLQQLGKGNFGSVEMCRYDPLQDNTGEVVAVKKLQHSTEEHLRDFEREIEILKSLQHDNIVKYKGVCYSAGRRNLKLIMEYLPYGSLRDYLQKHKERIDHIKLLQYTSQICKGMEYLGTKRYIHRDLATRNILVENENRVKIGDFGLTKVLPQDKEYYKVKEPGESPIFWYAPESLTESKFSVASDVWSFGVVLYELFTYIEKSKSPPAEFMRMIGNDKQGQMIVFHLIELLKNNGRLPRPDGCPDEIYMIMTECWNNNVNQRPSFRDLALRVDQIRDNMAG

The assay has as its target Tyrosine-protein kinase JAK2 (Homo sapiens, UniProt O60674). In words: Binding affinity to wild type JAK2 JH2 domain (unknown origin) by competitive fluorescence polarization assay.
The molecule `CN(Cc1ccc(Nc2nc(N)n(C(=O)c3c(F)cccc3F)n2)cc1)C(=S)Nc1ccc2c(c1)C(=O)OC21c2ccc(O)cc2Oc2cc(O)ccc21` displayed a Kd of 0.205 µM. This lies in the sub-micromolar range.
Turning to `N#Cc1ccc(Nc2nc(N)cc(-n3ccc(CO)n3)n2)cc1`, the affinity, expressed as Kd, was 57.3 µM.
Molecule `N#Cc1ccc(Nc2nc(N)nc(-c3ccc(CO)o3)n2)cc1` came in with a Kd of 122 µM.
In turn, `CS(=O)(=O)NCc1cn(-c2nc(N)nc(Nc3ccc(C#N)cc3)n2)nn1` returned a Kd of 106 µM. The Kd values of the last two molecules are within 1.5-fold of each other.
For the molecule `Cc1cc(C)n2c1C=C1C=CC(CCC(=O)NCCNC(=O)O[C@H]3[C@@H](O)[C@H](n4cnc5c(N)ncnc54)O[C@@H]3COP(=O)(O)OP(=O)(O)OP(=O)(O)O)=[N+]1[B-]2(F)F`, the Kd is 7 µM. Compared with the last molecule, the Kd is about 15-fold lower.
`Nc1nc(Nc2ccc(C(=O)NCCCCCNC(=S)Nc3ccc4c(c3)C(=O)OC43c4ccc(O)cc4Oc4cc(O)ccc43)cc2)nn1C(=O)c1c(F)cccc1F` showed a Kd of 0.227 µM.

The term Kd denotes the constant that tells how readily two partners part at equilibrium. Read a high Kd as weaker binding.
